The values below come from paper PMC9862227, “ATP and nucleic acids competitively modulate LLPS of the SARS-CoV2 nucleocapsid protein” (Communications Biology, 2023).

Usually Kd stands for the equilibrium constant for the complex coming apart.

The target of the experiment is T1, N (1-249) (Severe acute respiratory syndrome coronavirus 2, UniProt P0DTC9).
T1 construct: fragment 1-249 of the 419-residue protein (IDR1, NTD, IDR2); pET-28a, N-terminal 6xHis-SUMO tag removed with TEV protease; E. coli BL21; 15N-labelled
In words: biochemical. The experiment is classed as binding.

`Nc1ncnc2c1ncn2[C@@H]1O[C@H](COP(=O)(O)OP(=O)(O)OP(=O)(O)O)[C@@H](O)[C@H]1O` [ATP]: the Kd was 2000 ± 200 µM.
